Assay results as given in patent US20250230193A1, “CYCLIC COMPOUND HAVING SELECTIVE KRAS INHIBITORY EFFECT ON HRAS AND NRAS” (CHUGAI SEIYAKU KABUSHIKI KAISHA, priority 2022, published 2025).

Experiments:
[1] = molecular target: GDP-bound NRAS wild-type protein (Homo sapiens, UniProt P01111); experiment: Binding to NRAS by surface plasmon resonance (SPR), Single Cycle Kinetics; settings: KD ratio, GDP-bound NRAS wild-type vs GDP-bound KRAS wild-type, SPR
[2] = molecular target: GDP-bound HRAS wild-type protein (Homo sapiens, UniProt P01112); experiment: Binding to HRAS by surface plasmon resonance (SPR), Single Cycle Kinetics; settings: KD ratio, GDP-bound HRAS wild-type vs GDP-bound KRAS wild-type, SPR
GDP-bound HRAS wild-type protein, sequence (P01112 whole entry): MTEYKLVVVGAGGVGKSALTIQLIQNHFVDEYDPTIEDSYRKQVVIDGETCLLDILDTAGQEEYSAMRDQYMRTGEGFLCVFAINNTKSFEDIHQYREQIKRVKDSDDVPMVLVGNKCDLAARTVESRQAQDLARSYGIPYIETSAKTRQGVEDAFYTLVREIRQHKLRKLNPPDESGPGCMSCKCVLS

GDP-bound NRAS wild-type protein, sequence (P01111 whole entry): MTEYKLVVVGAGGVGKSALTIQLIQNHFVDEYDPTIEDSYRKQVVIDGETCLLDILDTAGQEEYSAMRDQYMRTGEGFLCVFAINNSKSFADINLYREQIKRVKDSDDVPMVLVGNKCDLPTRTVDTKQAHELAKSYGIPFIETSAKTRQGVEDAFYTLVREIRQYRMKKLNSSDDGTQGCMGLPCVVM

With `CCO[C@@H]1C[C@H]2C(=O)NC3(CCC3)C(=O)N(C)[C@@H](C3CCCC3)C(=O)N(C)[C@H](C(=O)N(C)C)CC(=O)N(C)[C@@H](CC)C(=O)N[C@@H]([C@@H](C)CC)C(=O)N(C)CC(=O)N(C)[C@H]3CC(C)=CCN(C3=O)[C@@H](Cc3ccc(C(F)(F)F)cc3)C(=O)N(C)CC(=O)N[C@@H](CCc3cc(F)c(C(F)(F)F)c(F)c3)C(=O)N2C1` [PP1034] the “NRAS/KRAS (ratio of KD value with respect to NRAS to KD value with respect to KRAS)” value [1] was “C (A compound having a KD ratio of 0.1 or more and less than 3 is denoted as C)” and the “HRAS/KRAS (ratio of KD value with respect to HRAS to KD value with respect to KRAS)” value [2] was “C (A compound having a KD ratio of 0.1 or more and less than 3 is denoted as C)”.

For `CCO[C@@H]1C[C@H]2C(=O)NC3(CCC3)C(=O)N(C)[C@@H](C3CCCC3)C(=O)N(C)[C@H](C(=O)N(C)C)CC(=O)N(C)[C@@H](CC)C(=O)N[C@@H]([C@@H](C)CC)C(=O)N3CC[C@H]3C(=O)N(C)[C@H]3CC(C)=CCN(C3=O)[C@@H](Cc3ccc(C(F)(F)F)cc3)C(=O)N(C)CC(=O)N[C@@H](CCc3cc(F)c(C(F)(F)F)c(F)c3)C(=O)N2C1` [PP1035], the “NRAS/KRAS (ratio of KD value with respect to NRAS to KD value with respect to KRAS)” value [1] was “C (A compound having a KD ratio of 0.1 or more and less than 3 is denoted as C)” and the “HRAS/KRAS (ratio of KD value with respect to HRAS to KD value with respect to KRAS)” value [2] was “C (A compound having a KD ratio of 0.1 or more and less than 3 is denoted as C)”.

With `CCO[C@@H]1C[C@H]2C(=O)NC3(CCCC3)C(=O)N(C)[C@@H](C3CCCC3)C(=O)N(C)[C@H](C(=O)N(C)C)CC(=O)N(C)[C@@H](CC)C(=O)N[C@@H]([C@@H](C)CC)C(=O)N(C)CC(=O)N(C)[C@H]3CC(C)=CCN(C3=O)[C@@H](Cc3ccc(C(F)(F)F)cc3)C(=O)N(C)CC(=O)N[C@@H](CCc3cc(F)c(C(F)(F)F)c(F)c3)C(=O)N2C1` [PP1036] the “NRAS/KRAS (ratio of KD value with respect to NRAS to KD value with respect to KRAS)” value [1] was “C (A compound having a KD ratio of 0.1 or more and less than 3 is denoted as C)” and the “HRAS/KRAS (ratio of KD value with respect to HRAS to KD value with respect to KRAS)” value [2] was “C (A compound having a KD ratio of 0.1 or more and less than 3 is denoted as C)”.

In the case of `CCO[C@@H]1C[C@H]2C(=O)NC3(CCC3)C(=O)N(C)[C@@H](C3CCCC3)C(=O)N(C)[C@H](C(=O)N(C)C)CC(=O)N(CC)[C@@H](CC(C)C)C(=O)N[C@@H]([C@@H](C)CC)C(=O)N(C)CC(=O)N(C)[C@H]3CC(C)=CCN(C3=O)[C@@H](Cc3ccc(C(F)(F)F)cc3)C(=O)N(C)CC(=O)N[C@@H](CCc3cc(F)c(C(F)(F)F)c(F)c3)C(=O)N2C1` [PP1037], the “NRAS/KRAS (ratio of KD value with respect to NRAS to KD value with respect to KRAS)” value [1] is reported as “C (A compound having a KD ratio of 0.1 or more and less than 3 is denoted as C)” and the “HRAS/KRAS (ratio of KD value with respect to HRAS to KD value with respect to KRAS)” value [2] is reported as “C (A compound having a KD ratio of 0.1 or more and less than 3 is denoted as C)”.

`CCO[C@@H]1C[C@H]2C(=O)NC3(CCCC3)C(=O)N(C)[C@@H](C3CCCC3)C(=O)N(C)[C@H](C(=O)N3CCOCC3)CC(=O)N(C)[C@@H](CC(C)C)C(=O)N[C@@H]([C@@H](C)CC)C(=O)N(C)CC(=O)N(C)[C@H]3CC(C)=CCN(C3=O)[C@@H](Cc3ccc(C(F)(F)F)cc3)C(=O)N(C)CC(=O)N[C@@H](CCc3cc(F)c(C(F)(F)F)c(F)c3)C(=O)N2C1` [PP1038] was tested, and the “NRAS/KRAS (ratio of KD value with respect to NRAS to KD value with respect to KRAS)” value [1] was “C (A compound having a KD ratio of 0.1 or more and less than 3 is denoted as C)” and the “HRAS/KRAS (ratio of KD value with respect to HRAS to KD value with respect to KRAS)” value [2] was “C (A compound having a KD ratio of 0.1 or more and less than 3 is denoted as C)”.

With `CCO[C@@H]1C[C@H]2C(=O)NC3(CCC3)C(=O)N(C)[C@@H](C3CCCC3)C(=O)N(C)[C@H](C(=O)N3CCOCC3)CC(=O)N(C)[C@@H](CC(C)C)C(=O)N[C@@H]([C@@H](C)CC)C(=O)N(C)CC(=O)N(C)[C@H]3CC(C)=CCN(C3=O)[C@@H](Cc3ccc(C(F)(F)F)cc3)C(=O)N(C)CC(=O)N[C@@H](CCc3cc(F)c(C(F)(F)F)c(F)c3)C(=O)N2C1` [PP1039] the “NRAS/KRAS (ratio of KD value with respect to NRAS to KD value with respect to KRAS)” value [1] was “C (A compound having a KD ratio of 0.1 or more and less than 3 is denoted as C)” and the “HRAS/KRAS (ratio of KD value with respect to HRAS to KD value with respect to KRAS)” value [2] was “C (A compound having a KD ratio of 0.1 or more and less than 3 is denoted as C)”.

`CCO[C@@H]1C[C@H]2C(=O)NC3(CCC3)C(=O)N(C)[C@@H](C3CCCC3)C(=O)N(C)[C@H](C(=O)N3CCOCC3)CC(=O)N(C)[C@@H](CC(C)C)C(=O)N[C@@H]([C@@H](C)CC)C(=O)N3CC[C@H]3C(=O)N(C)[C@H]3CC(C)=CCN(C3=O)[C@@H](Cc3ccc(C(F)(F)F)cc3)C(=O)N(C)CC(=O)N[C@@H](CCc3cc(F)c(C(F)(F)F)c(F)c3)C(=O)N2C1` [PP1040] was tested, and the “NRAS/KRAS (ratio of KD value with respect to NRAS to KD value with respect to KRAS)” value [1] was “C (A compound having a KD ratio of 0.1 or more and less than 3 is denoted as C)” and the “HRAS/KRAS (ratio of KD value with respect to HRAS to KD value with respect to KRAS)” value [2] was “C (A compound having a KD ratio of 0.1 or more and less than 3 is denoted as C)”.

With `CCO[C@@H]1C[C@H]2C(=O)NC3(CCC3)C(=O)N(C)[C@@H](C3CCCC3)C(=O)N(C)[C@H](C(=O)N3CCOCC3)CC(=O)N(C)[C@@H](CC)C(=O)N[C@@H]([C@@H](C)CC)C(=O)N(C)CC(=O)N(C)[C@H]3CC(C)=CCN(C3=O)[C@@H](Cc3ccc(C(F)(F)F)cc3)C(=O)N(C)CC(=O)N[C@@H](CCc3cc(F)c(C(F)(F)F)c(F)c3)C(=O)N2C1` [PP1041] the “NRAS/KRAS (ratio of KD value with respect to NRAS to KD value with respect to KRAS)” value [1] was “C (A compound having a KD ratio of 0.1 or more and less than 3 is denoted as C)” and the “HRAS/KRAS (ratio of KD value with respect to HRAS to KD value with respect to KRAS)” value [2] was “C (A compound having a KD ratio of 0.1 or more and less than 3 is denoted as C)”.

For `CCO[C@@H]1C[C@H]2C(=O)NC3(CCC3)C(=O)N(C)[C@@H](C3CCCC3)C(=O)N(C)[C@H](C(=O)N3CCOCC3)CC(=O)N(C)[C@@H](CC)C(=O)N[C@@H]([C@@H](C)CC)C(=O)N3CC[C@H]3C(=O)N(C)[C@H]3CC(C)=CCN(C3=O)[C@@H](Cc3ccc(C(F)(F)F)cc3)C(=O)N(C)CC(=O)N[C@@H](CCc3cc(F)c(C(F)(F)F)c(F)c3)C(=O)N2C1` [PP1042], the “NRAS/KRAS (ratio of KD value with respect to NRAS to KD value with respect to KRAS)” value [1] was “C (A compound having a KD ratio of 0.1 or more and less than 3 is denoted as C)” and the “HRAS/KRAS (ratio of KD value with respect to HRAS to KD value with respect to KRAS)” value [2] was “C (A compound having a KD ratio of 0.1 or more and less than 3 is denoted as C)”.

For `CCO[C@@H]1C[C@H]2C(=O)NC3(CCCC3)C(=O)N(C)[C@@H](C3CCCC3)C(=O)N(C)[C@H](C(=O)N3CCOCC3)CC(=O)N(C)[C@@H](CC)C(=O)N[C@@H]([C@@H](C)CC)C(=O)N(C)CC(=O)N(C)[C@H]3CC(C)=CCN(C3=O)[C@@H](Cc3ccc(C(F)(F)F)cc3)C(=O)N(C)CC(=O)N[C@@H](CCc3cc(F)c(C(F)(F)F)c(F)c3)C(=O)N2C1` [PP1043], the “NRAS/KRAS (ratio of KD value with respect to NRAS to KD value with respect to KRAS)” value [1] was “C (A compound having a KD ratio of 0.1 or more and less than 3 is denoted as C)” and the “HRAS/KRAS (ratio of KD value with respect to HRAS to KD value with respect to KRAS)” value [2] was “C (A compound having a KD ratio of 0.1 or more and less than 3 is denoted as C)”.

With `CCO[C@@H]1C[C@H]2C(=O)NC3(CCC3)C(=O)N(C)[C@@H](C3CCCC3)C(=O)N(C)[C@H](C(=O)N3CCOCC3)CC(=O)N(CC)[C@@H](CC(C)C)C(=O)N[C@@H]([C@@H](C)CC)C(=O)N(C)CC(=O)N(C)[C@H]3CC(C)=CCN(C3=O)[C@@H](Cc3ccc(C(F)(F)F)cc3)C(=O)N(C)CC(=O)N[C@@H](CCc3cc(F)c(C(F)(F)F)c(F)c3)C(=O)N2C1` [PP1044] the “NRAS/KRAS (ratio of KD value with respect to NRAS to KD value with respect to KRAS)” value [1] was “C (A compound having a KD ratio of 0.1 or more and less than 3 is denoted as C)” and the “HRAS/KRAS (ratio of KD value with respect to HRAS to KD value with respect to KRAS)” value [2] was “C (A compound having a KD ratio of 0.1 or more and less than 3 is denoted as C)”.
